Test results as given in paper PMC9090415, “Discovery of small molecule inhibitors of Plasmodium falciparum apicoplast DNA polymerase” (Journal of Enzyme Inhibition and Medicinal Chemistry, 2022).

Biological target: P. falciparum apicoplast DNA polymerase (Pf-apPOL) (Plasmodium falciparum, UniProt Q8ILY1)
Assay: Fluorescence-based high-throughput DNA polymerase assay (molecular beacon), primary screen and dose-response
Format: biochemical
Summary of the method: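 Single-point screening used 10 µM compound with 20 nM polymerase, 20 nM hairpin substrate and 6 µM dNTPs for 90 min at 25 °C. Confirmatory titrations (2.5–80 µM) followed fluorescence at three times, and IC50 was derived from a fit including a cooperativity term n.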

P. falciparum apicoplast DNA polymerase (Pf-apPOL), sequence (Q8ILY1 entry or part of it): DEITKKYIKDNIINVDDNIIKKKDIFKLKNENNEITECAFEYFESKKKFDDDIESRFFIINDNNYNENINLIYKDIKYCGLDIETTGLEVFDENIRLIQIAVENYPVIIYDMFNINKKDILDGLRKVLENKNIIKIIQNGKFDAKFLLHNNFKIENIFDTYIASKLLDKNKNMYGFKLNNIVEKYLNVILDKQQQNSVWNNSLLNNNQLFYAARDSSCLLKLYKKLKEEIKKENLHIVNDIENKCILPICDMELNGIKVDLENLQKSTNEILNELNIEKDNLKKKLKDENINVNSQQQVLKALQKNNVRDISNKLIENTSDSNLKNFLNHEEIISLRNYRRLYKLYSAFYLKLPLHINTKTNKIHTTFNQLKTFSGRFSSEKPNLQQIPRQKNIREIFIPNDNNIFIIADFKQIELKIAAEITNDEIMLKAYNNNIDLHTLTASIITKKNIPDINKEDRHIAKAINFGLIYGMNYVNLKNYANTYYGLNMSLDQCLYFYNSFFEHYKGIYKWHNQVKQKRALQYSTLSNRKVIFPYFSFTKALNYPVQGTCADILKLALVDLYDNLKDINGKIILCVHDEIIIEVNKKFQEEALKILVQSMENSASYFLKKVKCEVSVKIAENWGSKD

CCCCc1ccc(NC(=O)CSc2nc(C3CCCCC3)c(C#N)c(=O)[nH]2)c(C)c1 [Molecule 8, CCCCc1ccc(c(c1)C)NC(=O)CSc1nc(C2CCCCC2)c(c(=O)[nH]1)C#N]
DNA Pol ('DNA Pol' of the 186 hits list (primary screen result); unit not given; 90 min, 10 µM): 95 | % inhibition Apo pol 10' (DRC-1; 10'; concentration 2.5): -1.955% | % inhibition Apo pol 10' (DRC-1; 10'; concentration 5): 13.3371% | % inhibition Apo pol 10' (DRC-1; 10'; concentration 10): 62.6303% | % inhibition Apo pol 10' (DRC-1; 10'; concentration 20): 77.3201% | % inhibition Apo pol 10' (DRC-1; 10'; concentration 40): 94.4176% | % inhibition Apo pol 10' (DRC-1; 10'; concentration 80): 94.8178% | % inhibition Apol 90' (DRC-1; 90'; concentration 2.5): 1.126% | % inhibition Apol 90' (DRC-1; 90'; concentration 5): 14.1038% | % inhibition Apol 90' (DRC-1; 90'; concentration 10): 58.4598% | % inhibition Apol 90' (DRC-1; 90'; concentration 20): 77.2827% | % inhibition Apol 90' (DRC-1; 90'; concentration 40): 94.9708% | % inhibition Apol 90' (DRC-1; 90'; concentration 80): 95.9505% | % inhibition apPOL 180' (DRC-1; 180'; concentration 2.5): 1.158% | % inhibition apPOL 180' (DRC-1; 180'; concentration 5): 7.482% | % inhibition apPOL 180' (DRC-1; 180'; concentration 10): 46.1044% | % inhibition apPOL 180' (DRC-1; 180'; concentration 20): 69.2922% | % inhibition apPOL 180' (DRC-1; 180'; concentration 40): 95.0497% | % inhibition apPOL 180' (DRC-1; 180'; concentration 80): 96.1544% | % inhibition Apo pol 5' (DRC-2, 5', concentration 20 (unit not given)): 40% | % inhibition Apol 40' (DRC-2, 40', concentration 20 (unit not given)): 48% | % inhibition ApPOL 90' (DRC-2, 90', concentration 20 (unit not given)): 48% | % inhibition apPOL 180' (DRC-2, 180', concentration 20 (unit not given)): 40% | % inhibition Apo pol 5' (DRC-2; 5'; concentration 2.5): -2.67% | % inhibition Apo pol 5' (DRC-2; 5'; concentration 5): 2.83% | % inhibition Apo pol 5' (DRC-2; 5'; concentration 10): 12% | % inhibition Apo pol 5' (DRC-2; 5'; concentration 20): 40% | % inhibition Apo pol 5' (DRC-2; 5'; concentration 40): 61% | % inhibition Apo pol 5' (DRC-2; 5'; concentration 80): 65% | % inhibition Apol 40' (DRC-2; 40'; concentration 2.5): 1.81% | % inhibition Apol 40' (DRC-2; 40'; concentration 5): 5% | % inhibition Apol 40' (DRC-2; 40'; concentration 10): 16% | % inhibition Apol 40' (DRC-2; 40'; concentration 20): 48% | % inhibition Apol 40' (DRC-2; 40'; concentration 40): 72% | % inhibition Apol 40' (DRC-2; 40'; concentration 80): 79% | % inhibition ApPOL 90' (DRC-2; 90'; concentration 2.5): 1.18% | % inhibition ApPOL 90' (DRC-2; 90'; concentration 5): 4% | % inhibition ApPOL 90' (DRC-2; 90'; concentration 10): 15% | % inhibition ApPOL 90' (DRC-2; 90'; concentration 20): 48% | % inhibition ApPOL 90' (DRC-2; 90'; concentration 40): 73% | % inhibition ApPOL 90' (DRC-2; 90'; concentration 80): 83% | % inhibition apPOL 180' (DRC-2; 180'; concentration 2.5): -0.672% | % inhibition apPOL 180' (DRC-2; 180'; concentration 5): -0.274% | % inhibition apPOL 180' (DRC-2; 180'; concentration 10): 9% | % inhibition apPOL 180' (DRC-2; 180'; concentration 20): 40% | % inhibition apPOL 180' (DRC-2; 180'; concentration 40): 71% | % inhibition apPOL 180' (DRC-2; 180'; concentration 80): 86% | DNA Pol (primary screen value of the library well; unit not given; 90 min, 10 µM): 95

O=C1NN(c2ccc(Cl)c(Cl)c2)C(=O)/C1=C/c1ccc(-c2ccc3c(c2)C(=O)OC3)o1 [Molecule 90, O=C1NN(C(=O)/C/1=C/c1ccc(o1)c1ccc2c(c1)C(=O)OC2)c1ccc(c(c1)Cl)Cl]
DNA Pol ('DNA Pol' of the 186 hits list (screen value); 90 min, 10 µM): 51 | % inhibition Apo pol 10' (DRC-1; 10'; conc 2.5): 36.4105% | % inhibition Apo pol 10' (DRC-1; 10'; conc 5): 68.8597% | % inhibition Apo pol 10' (DRC-1; 10'; conc 10): 88.9603% | % inhibition Apo pol 10' (DRC-1; 10'; conc 20): 93.857% | % inhibition Apo pol 10' (DRC-1; 10'; conc 40): 90.5867% | % inhibition Apo pol 10' (DRC-1; 10'; conc 80): 96.7456% | % inhibition Apol 90' (DRC-1; 90'; conc 2.5): 24.0232% | % inhibition Apol 90' (DRC-1; 90'; conc 5): 57.3373% | % inhibition Apol 90' (DRC-1; 90'; conc 10): 84.2476% | % inhibition Apol 90' (DRC-1; 90'; conc 20): 92.6423% | % inhibition Apol 90' (DRC-1; 90'; conc 40): 85.5188% | % inhibition Apol 90' (DRC-1; 90'; conc 80): 95.1265% | % inhibition apPOL 180' (DRC-1; 180'; conc 2.5): 13.8146% | % inhibition apPOL 180' (DRC-1; 180'; conc 5): 43.9311% | % inhibition apPOL 180' (DRC-1; 180'; conc 10): 78.9656% | % inhibition apPOL 180' (DRC-1; 180'; conc 20): 91.6394% | % inhibition apPOL 180' (DRC-1; 180'; conc 40): 79.8129% | % inhibition apPOL 180' (DRC-1; 180'; conc 80): 94.9011% | % inhibition Apo pol 5' (DRC-2; 5'; conc 2.5): 31% | % inhibition Apo pol 5' (DRC-2; 5'; conc 5): 10% | % inhibition Apo pol 5' (DRC-2; 5'; conc 10): 34% | % inhibition Apo pol 5' (DRC-2; 5'; conc 20): 38% | % inhibition Apo pol 5' (DRC-2; 5'; conc 40): 61% | % inhibition Apo pol 5' (DRC-2; 5'; conc 80): 63% | % inhibition Apo pol 5' (DRC-2; 5'; concentration 5): 10% | % inhibition Apo pol 5' (DRC-2; 5'; concentration 10): 34% | % inhibition Apo pol 5' (DRC-2; 5'; concentration 80): 63% | % inhibition Apol 40' (DRC-2; 40'; conc 2.5): 33% | % inhibition Apol 40' (DRC-2; 40'; conc 5): 10% | % inhibition Apol 40' (DRC-2; 40'; conc 10): 37% | % inhibition Apol 40' (DRC-2; 40'; conc 20): 42% | % inhibition Apol 40' (DRC-2; 40'; conc 40): 68% | % inhibition Apol 40' (DRC-2; 40'; conc 80): 79% | % inhibition Apol 40' (DRC-2; 40'; concentration 5): 10% | % inhibition ApPOL 90' (DRC-2; 90'; conc 2.5): 30% | % inhibition ApPOL 90' (DRC-2; 90'; conc 5): 9% | % inhibition ApPOL 90' (DRC-2; 90'; conc 10): 35% | % inhibition ApPOL 90' (DRC-2; 90'; conc 20): 40% | % inhibition ApPOL 90' (DRC-2; 90'; conc 40): 67% | % inhibition ApPOL 90' (DRC-2; 90'; conc 80): 82% | % inhibition apPOL 180' (DRC-2; 180'; conc 2.5): 24% | % inhibition apPOL 180' (DRC-2; 180'; conc 5): 6% | % inhibition apPOL 180' (DRC-2; 180'; conc 10): 29% | % inhibition apPOL 180' (DRC-2; 180'; conc 20): 34% | % inhibition apPOL 180' (DRC-2; 180'; conc 40): 63% | % inhibition apPOL 180' (DRC-2; 180'; conc 80): 83% | % inhibition apPOL 180' (DRC-2; 180'; concentration 20): 34% | % inhibition apPOL 180' (DRC-2; 180'; concentration 40): 63% | DNA Pol (primary screen value, "DNA Pol"; 90 min, 10 µM): 51

CSCCC(C)(O)CNC(=O)C1CC1 (stereo not shown) [KU0200150]
DNA Pol ('DNA Pol'; screening value, unit not given; 90 min, 10 µM): 33 | % inhibition Apo pol 10' (DRC-1; 10'; concentration 2.5): 4.373% | % inhibition Apo pol 10' (DRC-1; 10'; concentration 5): 5.1384% | % inhibition Apo pol 10' (DRC-1; 10'; concentration 10): 19.1529% | % inhibition Apo pol 10' (DRC-1; 10'; concentration 20): 27.3456% | % inhibition Apo pol 10' (DRC-1; 10'; concentration 40): 40.4484% | % inhibition Apo pol 10' (DRC-1; 10'; concentration 80): 39.3482% | % inhibition Apol 90' (DRC-1; 90'; concentration 2.5): 7.582% | % inhibition Apol 90' (DRC-1; 90'; concentration 5): 12.5551% | % inhibition Apol 90' (DRC-1; 90'; concentration 10): 30.4266% | % inhibition Apol 90' (DRC-1; 90'; concentration 20): 38.5831% | % inhibition Apol 90' (DRC-1; 90'; concentration 40): 51.9729% | % inhibition Apol 90' (DRC-1; 90'; concentration 80): 47.9472% | % inhibition apPOL 180' (DRC-1; 180'; concentration 2.5): 8.962% | % inhibition apPOL 180' (DRC-1; 180'; concentration 5): 14.7367% | % inhibition apPOL 180' (DRC-1; 180'; concentration 10): 36.1682% | % inhibition apPOL 180' (DRC-1; 180'; concentration 20): 43.4388% | % inhibition apPOL 180' (DRC-1; 180'; concentration 40): 54.9454% | % inhibition apPOL 180' (DRC-1; 180'; concentration 80): 46.3242% | % inhibition Apo pol 5' (DRC-2, 5', concentration 2.5): 0.182% | % inhibition Apo pol 5' (DRC-2, 5', concentration 5): 4.75% | % inhibition Apo pol 5' (DRC-2, 5', concentration 10): 22% | % inhibition Apo pol 5' (DRC-2, 5', concentration 20): 24% | % inhibition Apo pol 5' (DRC-2, 5', concentration 40): 29% | % inhibition Apo pol 5' (DRC-2, 5', concentration 80): 27% | % inhibition Apol 40' (DRC-2, 40', concentration 2.5): 3.34% | % inhibition Apol 40' (DRC-2, 40', concentration 5): 11% | % inhibition Apol 40' (DRC-2, 40', concentration 10): 28% | % inhibition Apol 40' (DRC-2, 40', concentration 20): 33% | % inhibition Apol 40' (DRC-2, 40', concentration 40): 41% | % inhibition Apol 40' (DRC-2, 40', concentration 80): 41% | % inhibition ApPOL 90' (DRC-2, 90', concentration 2.5): 3.4% | % inhibition ApPOL 90' (DRC-2, 90', concentration 5): 11% | % inhibition ApPOL 90' (DRC-2, 90', concentration 10): 27% | % inhibition ApPOL 90' (DRC-2, 90', concentration 20): 30% | % inhibition ApPOL 90' (DRC-2, 90', concentration 40): 42% | % inhibition ApPOL 90' (DRC-2, 90', concentration 80): 41% | % inhibition apPOL 180' (DRC-2, 180', concentration 2.5): 0.149% | % inhibition apPOL 180' (DRC-2, 180', concentration 5): 5% | % inhibition apPOL 180' (DRC-2, 180', concentration 10): 17% | % inhibition apPOL 180' (DRC-2, 180', concentration 20): 18% | % inhibition apPOL 180' (DRC-2, 180', concentration 40): 32% | % inhibition apPOL 180' (DRC-2, 180', concentration 80): 32% | % inhibition Apol 40' (conc 5 (unit not given); 40'; DRC-2): 11% | % inhibition ApPOL 90' (conc 5 (unit not given); 90'; DRC-2): 11% | % inhibition ApPOL 90' (conc 10 (unit not given); 90'; DRC-2): 27% | % inhibition Apol 40' (conc 40 (unit not given); 40'; DRC-2): 41% | % inhibition apPOL 180' (conc 40 (unit not given); 180'; DRC-2): 32% | % inhibition Apo pol 5' (conc 80 (unit not given); 5'; DRC-2): 27% | % inhibition Apol 40' (conc 80 (unit not given); 40'; DRC-2): 41% | % inhibition ApPOL 90' (conc 80 (unit not given); 90'; DRC-2): 41% | % inhibition apPOL 180' (conc 80 (unit not given); 180'; DRC-2): 32% | DNA Pol (primary screen hit value, DNA Pol (186 hits); 90 min, 10 µM): 33
